Assay results: PubChem BioAssay (NCI)
Where “and” joins values, the source holds several entries; their conditions need not be identical. Equal values may be shown once.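 Following 48 hours of exposure in 96-well plates, responses at five concentrations were used to interpolate endpoints linearly. GI50: concentration for 50% inhibition of growth. TGI: total growth inhibition.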

How the values were obtained:
Assay in all cases: DTP human tumour cell line panel, 48 h
[1] = tested on: 786-0 renal
[2] = tested on: COLO 205 colon
[3] = tested on: EKVX NSCLC
[4] = tested on: HCT-15 colon
[5] = tested on: HL-60(TB) leukemia
[6] = tested on: MALME-3M melanoma
[7] = tested on: OVCAR-5 ovarian
[8] = tested on: SF-539 CNS
[9] = tested on: SK-MEL-2 melanoma
[10] = tested on: SN12C renal

Compound	TGI [1]	TGI [2]	TGI [3]	TGI [4]	TGI [5] [µM]	TGI [6]	TGI [7]	TGI [8]	TGI [9]	TGI [10]	GI50 [1]	GI50 [2]	GI50 [3]	GI50 [4]	GI50 [5] [µM]	GI50 [6]	GI50 [7]	GI50 [8]	GI50 [9]	GI50 [10]
C[N+](C)(C)CC(=O)N/N=C(\CCC(=O)NCCc1ccccc1)CC(=O)c1ccccc1	> 100 µM	> 100 µM	> 100 µM	> 100 µM	> 100	> 100 µM	> 100 µM	> 100 µM	> 100 µM	> 100 µM	–	–	–	–	–	–	–	–	–	–
C=C(C)[C@@H]1CC[C@]2(C(N)=O)CC[C@]3(C)[C@H](CC[C@@H]4[C@@]5(C)CC[C@H](O)C(C)(C)[C@@H]5CC[C@]43C)[C@@H]12	4.61 µM	15 µM	18.2 µM	12.3 µM	17.5	8.15 µM	16.5 µM	3.4 µM	36.8 µM	10.6 µM	2.03 µM	3.63 µM	2.96 µM	3.28 µM	3.59	2.39 µM	3.78 µM	1.78 µM	7.63 µM	3 µM
CC(C)CC1C(=O)N2CCC[C@H]2C2(O)O[C@](NC(=O)C3C=C4c5cccc6[nH]c(Br)c(c56)C[C@H]4N(C)C3)(C(C)C)C(=O)N12 (stereo partly drawn)	> 100 µM	> 100 µM	> 100 µM	> 100 µM	29.3	> 100 µM	> 100 µM	> 100 µM	> 100 µM	> 100 µM	25.7 µM	–	3.7 µM	7.05 µM	3.8	> 100 µM	–	–	22.6 µM	10.2 µM
C[C@H]1CC[C@H]([C@@H](C)[C@H]2[C@@H](O)C[C@H]3[C@@H]4CC[C@H]5C[C@@H](O)CC[C@]5(C)[C@H]4CC[C@]23C)NC1	37.1 µM	45.7 µM	32.5 µM	36.6 µM	20.2	33 µM	49.4 µM	53.7 µM	46 µM	35.5 µM	–	–	–	–	–	–	–	–	–	–
O=C(NCCO)c1cc2c(cn1)[nH]c1ccccc12	33.7 µM	> 100 µM	> 100 µM	> 100 µM	> 100	43.9 µM	> 100 µM	> 100 µM	33.6 µM	> 100 µM	–	–	–	–	–	–	–	–	–	–
C=CC(=O)N1C/C(=C\c2ccccc2)C(=O)/C(=C/c2ccccc2)C1	2.54 µM	3.87 µM	9.42 µM	4 µM	7.4	4.87 µM	5.72 µM	3.69 µM	4.81 µM	3.44 µM	–	–	–	–	0.805	–	–	–	–	–
CC(C)N(C(=O)C1(C)CC1)C(C)C	> 100 µM	> 100 µM	> 100 µM	> 100 µM	> 100	> 100 µM	> 100 µM	> 100 µM	> 100 µM	> 100 µM	–	–	–	–	–	–	–	–	–	–
C[C@@H](N)C1CCC(C(=O)Nc2ccncc2)CC1 (stereo partly drawn)	> 100 µM	> 100 µM	> 100 µM	> 100 µM	> 100	> 100 µM	> 100 µM	> 100 µM	> 100 µM	> 100 µM	> 100 µM	> 100 µM	15 µM	> 100 µM	> 100	> 100 µM	> 100 µM	> 100 µM	> 100 µM	> 100 µM
Cc1ccc(S(=O)(=O)Oc2ccc([N+](=O)[O-])cc2[N+](=O)[O-])cc1	14.6 µM	18.6 µM	34.4 µM	17.9 µM	38.3	29.8 µM	26.6 µM	18.2 µM	16.6 µM	17.3 µM	3.83 µM	4.51 µM	17.9 µM	3.61 µM	11.4	10.7 µM	8.01 µM	4.54 µM	4.31 µM	3.78 µM
O=C1Nc2cc(Cl)ccc2N=CC1NC(=O)C(c1ccccc1)c1ccccc1Cl (stereo not drawn)	> 100 µM	> 100 µM	> 100 µM	> 100 µM	> 100	> 100 µM	> 100 µM	> 100 µM	> 100 µM	> 100 µM	–	–	–	–	–	–	–	–	–	–
Cc1nnc(N=Nc2c(O)[nH]c3c(Cl)cc(Cl)cc23)n1N	> 100 µM	> 100 µM	> 100 µM	> 100 µM	> 100	> 100 µM	> 100 µM	> 100 µM	> 100 µM	> 100 µM	–	–	–	–	–	–	–	–	–	–
Cc1cc(C(=O)Nc2nc3cccc(Cl)c3n2[C@@H]2CCCCN(C(=O)/C=C/CN(C)C)C2)ccn1	21.6 µM	22.4 µM	18.7 µM	19.7 µM	38.3	34 µM	47.6 µM	29.5 µM	34.2 µM	22.2 µM	3.78 µM	7.69 µM	0.518 µM	4.42 µM	17	18.2 µM	17.7 µM	15.1 µM	17.5 µM	3.51 µM
COc1cc(-c2nc(NC(C)=O)sc2-c2ccnc(NCCNS(=O)(=O)c3ccccc3)n2)ccc1Cl	> 100 µM	6.01 µM	> 100 µM	> 100 µM	7.45	> 100 µM	> 100 µM	8.48 µM	6.23 µM	> 100 µM	4.31 µM	2.21 µM	5.25 µM	3.78 µM	3.14	3.8 µM	9.77 µM	2.86 µM	2.42 µM	5.47 µM
COc1ccc(/C=C/C(=O)C(C)(C)CN2CCCCC2)cc1	29.9 µM	30.6 µM	80.7 µM	34.3 µM	37.9	79.8 µM	> 100 µM	38.1 µM	32.7 µM	44.1 µM	–	–	–	–	–	–	–	–	–	–
O=C(c1ccc(OCCN2CCCCC2)cc1)c1c(-c2ccc(O)cc2)sc2cc(O)ccc12	18.2 µM and 27.6 µM	24.7 µM and 40.6 µM	25.7 µM and 33.9 µM	20.8 µM and 13.2 µM	12.7	23.5 µM and 28.9 µM	30.8 µM and 43.7 µM	27.2 µM and 25.7 µM	35.2 µM and 33.8 µM	29.7 µM and 29.8 µM	4.5 µM and 7.58 µM	12.3 µM and 9.73 µM	9.34 µM and 12.8 µM	5.51 µM and 2.67 µM	2.02	6.05 µM and 13.5 µM	16 µM and 20.6 µM	12.1 µM and 11 µM	15.8 µM and 14.9 µM	13.5 µM and 14.5 µM
COc1c2ccoc2cc2oc(=O)ccc12	> 100 µM	> 100 µM	> 100 µM	> 100 µM	> 100	> 100 µM	> 100 µM	> 100 µM	> 100 µM	> 100 µM	–	–	–	–	–	–	–	–	–	–
